Results published in paper PMC7681098 (Theranostics, 2021).
Where two headings read alike, the source gives them in different places.

Experiments:
U937 = experiment: Cell proliferation MTT assay; type: cell-based; details: Homo sapiens, U-937, 72 h, wild-type FLT3, read-out: Human leukemia cell line IC50 U937
Experimental: (§1) The conditional medium (CM) was prepared from the supernatant of HS-5 cell culture for 5 days under normal culture conditions. At the indicated time point, cell viability was evaluated by MTT assay.

THP-1 = experiment: Cell proliferation MTT assay; type: cell-based; details: Homo sapiens, 72 h, wild-type FLT3, read-out: Human leukemia cell line IC50 THP-1
Experimental: as §1

MOLM13 = experiment: Cell proliferation MTT assay; type: cell-based; details: Homo sapiens, MOLM-13, 72 h, read-out: Human leukemia cell line IC50 MOLM13
Experimental: as §1

MV4-11 = experiment: Cell proliferation MTT assay; type: cell-based; details: Homo sapiens, 72 h, read-out: Human leukemia cell line IC50 MV4-11
Experimental: as §1

MOLM13 cells = experiment: Stroma-protecting model: proliferation in HS-5 conditional medium or normal medium; type: cell-based; details: Homo sapiens
Experimental: At the indicated time point, cell viability was evaluated by MTT assay.
(A) Indicated FLT3 mutations were expressed in BaF3 cells respectively. […] The autophosphorylation level of FLT3 was visualized and compared by western blot analysis. […] The CM was prepared from HS-5 cell culture for 4 days under routine culture conditions, clarified by centrifugation, and used immediately. The CM was added to complete medium at a final concentration of 40%. Cell viabilities were measured by MTT assay. Data were shown as mean±SD. […] The FLT3 phosphorylation levels of FLT3, STAT5 and ERK 1/2 were determined by Western blot.
On the other hand, the bone marrow stroma-protecting environment containing a number of cytokines (e.g. FLT3 ligand, stromal derived factor-1, etc) could also decrease the drug efficacy of FLT3 inhibitors by activating FLT3 or its downstream effectors and building cross-talk between leukemic blasts and bone marrow microenvironment, [35].

ERK1 = molecular target: T1, ERK1 (Homo sapiens, UniProt P27361); experiment: Kinase inhibition assay (Reaction Biology); type: biochemical; details: 10 μM ATP, 10-dose IC50 mode
T1 construct: purchased Reaction Biology Corporation (PA, USA)
T1 sequence (P27361 whole entry): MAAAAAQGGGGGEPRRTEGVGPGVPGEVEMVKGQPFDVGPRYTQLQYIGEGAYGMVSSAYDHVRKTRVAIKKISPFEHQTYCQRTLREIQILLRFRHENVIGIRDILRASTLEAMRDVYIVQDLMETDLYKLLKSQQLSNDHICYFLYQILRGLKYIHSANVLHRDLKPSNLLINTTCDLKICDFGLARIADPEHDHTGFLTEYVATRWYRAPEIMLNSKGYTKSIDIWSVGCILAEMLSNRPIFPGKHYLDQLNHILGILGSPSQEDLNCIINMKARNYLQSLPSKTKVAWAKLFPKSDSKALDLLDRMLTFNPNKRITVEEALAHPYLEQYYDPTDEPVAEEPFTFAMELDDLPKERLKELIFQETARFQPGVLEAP

MV4-11 cells = experiment: Bone marrow engrafted model, survival; type: in vivo, NOD-SCID mice; details: MV4-11 bone marrow engraftment; LT-171-861 10 mg/kg every other day, sorafenib orally every day
Experimental: Six-week-old female NOD-SCID mice were treated with sub-lethal dose radiation (1.8 Gy) before intravenous injection of MV4-11 cells (5×10^6) or MOLM13 cells (5×10^6).
Data were shown as mean±SD. […] Data were shown as mean±SD. (C) An engrafted tumor model was used to evaluate in vivo antitumor activity. The NOD/SCID mice were intravenously inoculated with MV4-11 cells. […] Log-rank testing was used to compare survival curves among treatment groups. […] (D) Apoptotic assays in engraft model were evaluated by TUNEL assay and cell proliferative activity was measured by Ki67 assay. Images were acquired at ×40 magnification. (E) BALB/c nude mice were subcutaneously inoculated with MV4-11 cells (5×10^6) and bodyweight of each mouse was recorded every other day. (F) Representative photo of tumors from BALB/c nude mice which were inoculated with MV4-11 cells. (G) BALB/c nude mice were subcutaneously inoculated with BaF3 cells bearing FLT3-ITD-N676D (n=6) and FLT3-ITD-F691L (n=6) respectively. […] (H) BALB/c mice were intravenously inoculated with cells used in (G). […] Log-rank testing was used to compare survival curves among treatment groups. […] (I) Representative photos of spleens dissected from mice in (H) inoculated with BaF3 cells bearing FLT-3-ITD-F691L.
Mice that received vehicle treatment died within 30 days after intravenous injection of MV4-11 cells.

[1] = system: BaF3 cells with FLT3-ITD/F691L; experiment: Cell viability of transformed BaF3 cells; type: cell-based, murine; details: Mus musculus, read-out: BaF3 cells with FLT3 mutants IC50 ITD-F691L
Experimental: (§2) Lentivirus packaging and construction of transformed BaF3 cells were performed as described previously. […] Supernatants were collected and used to infect BaF3 cells, and transduced BaF3 cells were selected with puromycin (1 μg/ml) to obtain stably transformed cells.
as §1

[2] = system: BaF3 cells with FLT3-ITD/N676D; experiment: Cell viability of transformed BaF3 cells; type: cell-based, murine; details: Mus musculus, read-out: BaF3 cells with FLT3 mutants IC50 ITD-N676D
Experimental: as §2, §1

[3] = system: BaF3 cells with FLT3-ITD/Y842C; experiment: Cell viability of transformed BaF3 cells; type: cell-based, murine; details: Mus musculus, read-out: BaF3 cells with FLT3 mutants IC50 ITD-Y842C
Experimental: as §2, §1

BaF3 cells with FLT3-ITD = experiment: Cell viability of transformed BaF3 cells; type: cell-based, murine; details: Mus musculus, read-out: BaF3 cells with FLT3 mutants IC50 ITD
Experimental: as §2, §1

[4] = system: BaF3 cells with FLT3-D835Y; experiment: Cell viability of transformed BaF3 cells; type: cell-based, murine; details: Mus musculus, read-out: BaF3 cells with FLT3 mutants IC50 D835Y
Experimental: as §2, §1

[5] = system: BaF3 cells with FLT3-ITD/D835Y; experiment: Cell viability of transformed BaF3 cells; type: cell-based, murine; details: Mus musculus, BaF3; cell viability; read-out: BaF3 cells with FLT3 mutants IC50 ITD-D835Y
Experimental: as §2, §1

IC50 (ERK1) [nM]	SMILES	IC50 (U937) [nM]	IC50 (THP-1) [nM]	IC50 (MOLM13) [nM]	IC50 (MV4-11) [nM]	IC50 (MOLM13 cells; MOLM-13, 72 h, read-out: IC50 proliferation of MOLM13 cells in CM) [nM]	IC50 (MOLM13 cells; MOLM-13, 72 h, read-out: IC50 proliferation of MOLM13 cells in NM) [nM]	survival versus vehicle (MV4-11 cells)	IC50 [1] [nM]	IC50 [2] [nM]	IC50 [3] [nM]	IC50 (BaF3 cells with FLT3-ITD) [nM]	IC50 [4] [nM]	IC50 [5] [nM]	IC50 (MOLM13 cells; MOLM-13, HS-5 conditional medium (CM) 40%, 72 h, MTT, read-out: IC50 proliferation of MOLM13 cells in CM) [nM]	IC50 (MOLM13 cells; MOLM-13, normal medium (NM), 72 h, MTT, read-out: IC50 proliferation of MOLM13 cells in NM) [nM]
	CC(C)(C)c1cc(NC(=O)Nc2ccc(-c3cn4c(n3)sc3cc(OCCN5CCOCC5)ccc34)cc2)no1 [AC220]	> 1000	> 1000	1.2	1.5	116	14.1									
4.9	O=C(Nc1ccc2[nH]nc(-c3ccncc3)c2c1)[C@@H]1CCN(CC(=O)N2CCN(c3ccc(-c4ncccn4)cc3)CC2)C1 [SCH772984, reference compound]															
	CNC(=O)c1cc(Oc2ccc(NC(=O)Nc3ccc(Cl)c(C(F)(F)F)c3)cc2)ccn1 [Sorafenib, reference compound]	> 1000	> 1000	5.3	3.2			increased survival rates	45.2	103	346	13.2	235	878	1460	11.3
